Read-outs that look alike come from different tables or passages of the source.
Assays:
Type in all cases: biochemical
panel of kinases = target: T1, panel of kinases (Homo sapiens, UniProt P51813); assay: Inhibition of a panel of kinases (in vitro HotSpot kinase assay, 33P-ATP, 1 μM ATP), other kinases; settings: BMX wild-type, read-out: BMX-WT IC50
T1 sequence (P51813 1-675): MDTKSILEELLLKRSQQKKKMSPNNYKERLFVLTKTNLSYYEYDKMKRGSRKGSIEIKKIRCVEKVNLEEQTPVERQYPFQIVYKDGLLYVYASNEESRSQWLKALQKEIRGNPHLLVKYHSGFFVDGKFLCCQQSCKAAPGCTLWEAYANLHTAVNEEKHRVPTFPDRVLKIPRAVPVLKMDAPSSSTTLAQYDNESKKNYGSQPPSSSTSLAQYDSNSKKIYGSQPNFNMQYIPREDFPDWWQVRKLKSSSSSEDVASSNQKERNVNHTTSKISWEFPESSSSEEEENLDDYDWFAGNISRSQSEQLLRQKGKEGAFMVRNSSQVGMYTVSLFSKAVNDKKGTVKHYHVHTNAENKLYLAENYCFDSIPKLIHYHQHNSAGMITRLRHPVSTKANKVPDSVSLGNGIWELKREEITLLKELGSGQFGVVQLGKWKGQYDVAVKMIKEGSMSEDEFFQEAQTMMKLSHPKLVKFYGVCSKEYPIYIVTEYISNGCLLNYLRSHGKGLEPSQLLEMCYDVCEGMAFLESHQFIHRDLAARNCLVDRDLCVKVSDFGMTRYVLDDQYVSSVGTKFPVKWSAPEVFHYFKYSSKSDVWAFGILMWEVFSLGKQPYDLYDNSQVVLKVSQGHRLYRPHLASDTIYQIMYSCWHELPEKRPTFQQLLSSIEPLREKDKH
Method in brief: (§1)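 Radiometric read-out: 33P transfer to a suitable substrate by each purified enzyme, ATP at 1 μM. Values are degree of inhibition.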

TEC = target: T2, TEC (Homo sapiens, UniProt P42680); assay: Inhibition of a panel of kinases (in vitro HotSpot kinase assay, 33P-ATP, 1 μM ATP); settings: for IC50: HotSpot kinase assay, 1 μM ATP; for TEC/Btk: ratio of TEC IC50 to Btk IC50 (selectivity)
T2 sequence (P42680 1-631): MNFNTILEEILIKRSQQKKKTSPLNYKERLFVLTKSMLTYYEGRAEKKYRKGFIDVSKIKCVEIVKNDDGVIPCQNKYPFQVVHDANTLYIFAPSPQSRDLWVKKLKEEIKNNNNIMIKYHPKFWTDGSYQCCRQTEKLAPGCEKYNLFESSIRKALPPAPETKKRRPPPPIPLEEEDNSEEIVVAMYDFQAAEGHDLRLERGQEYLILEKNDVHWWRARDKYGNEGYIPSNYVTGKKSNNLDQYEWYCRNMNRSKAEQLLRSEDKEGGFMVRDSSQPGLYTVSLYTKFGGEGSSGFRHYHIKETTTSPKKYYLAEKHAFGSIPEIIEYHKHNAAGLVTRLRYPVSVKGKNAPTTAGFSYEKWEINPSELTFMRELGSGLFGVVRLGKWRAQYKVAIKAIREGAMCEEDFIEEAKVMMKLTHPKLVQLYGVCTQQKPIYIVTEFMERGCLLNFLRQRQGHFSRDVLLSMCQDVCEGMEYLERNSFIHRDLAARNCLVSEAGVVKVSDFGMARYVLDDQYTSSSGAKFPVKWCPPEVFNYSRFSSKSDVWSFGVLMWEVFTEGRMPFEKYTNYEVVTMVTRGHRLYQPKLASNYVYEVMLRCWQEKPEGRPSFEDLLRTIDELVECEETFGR
Method in brief: as §1

Btk = target: T3, Btk (Homo sapiens, UniProt Q06187); assay: Btk in vitro inhibitory activity (one of Method A TR-FRET, Method B electrophoretic mobility shift, Method C radiometric filter binding)
T3 construct: purified from insect cells as a full-length construct containing a N-terminal 6X-His tag; His6 (N); made in house; host or cells: insect cells (Method C)
T3 sequence (Q06187 whole entry): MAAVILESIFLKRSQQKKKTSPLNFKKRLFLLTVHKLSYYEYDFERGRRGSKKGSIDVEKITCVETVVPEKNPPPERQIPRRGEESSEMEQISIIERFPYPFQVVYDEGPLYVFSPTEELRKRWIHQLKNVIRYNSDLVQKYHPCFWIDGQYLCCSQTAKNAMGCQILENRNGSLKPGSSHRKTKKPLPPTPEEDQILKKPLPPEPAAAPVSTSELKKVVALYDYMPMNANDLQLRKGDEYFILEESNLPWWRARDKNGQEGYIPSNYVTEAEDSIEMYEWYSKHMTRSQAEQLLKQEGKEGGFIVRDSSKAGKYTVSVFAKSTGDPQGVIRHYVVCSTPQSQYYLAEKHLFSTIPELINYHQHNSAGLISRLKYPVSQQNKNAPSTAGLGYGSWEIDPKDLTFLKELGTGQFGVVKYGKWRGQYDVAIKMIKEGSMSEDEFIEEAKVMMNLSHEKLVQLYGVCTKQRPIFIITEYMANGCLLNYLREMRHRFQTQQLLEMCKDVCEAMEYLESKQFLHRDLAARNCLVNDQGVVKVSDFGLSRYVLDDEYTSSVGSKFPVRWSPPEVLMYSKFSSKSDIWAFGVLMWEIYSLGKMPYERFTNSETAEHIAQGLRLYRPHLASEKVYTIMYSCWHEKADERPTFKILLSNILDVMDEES
Method in brief: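 Three alternative formats were used. A radiometric filter-binding read used 8 nM full-length His-BTK with 0.2 mg/mL poly(Glu-Tyr) 4:1 (C); microfluidic separation of 1 μM FAM-peptide by 1 nM BTK gave IC50 from 12-point curves (B); TR-FRET at Km ATP, 0.5 nM Btk, gave Ki(app)-derived IC50 (A).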

[1] = wild-type Btk, read-out: Btk-WT IC50

Compound | IC50 (panel of kinases) [nM] | IC50 (TEC) [nM] | IC50 (Btk; [1]) [nM] | TEC/Btk (TEC) | IC50 (Btk; method is one of A, B or C, not stated which, read-out: IC50 values against Btk) [nM]
CC(C)(C)c1noc(C(=O)NC2(c3ccc(-c4ccnc5[nH]nc(N[C@@H]6CCNC6)c45)cc3)CC2)n1 [Example 71, 3-tert-butyl-N-{1-[4-(3-{[(3R)-pyrrolidin-3-yl]amino}-1H-pyrazolo[3,4-b]pyridin-4-yl)phenyl]cyclopropyl}-1,2,4-oxadiazole-5-carboxamide] | > 10000 | > 10000 | 42.2 | >100 | –
Cn1c(C(=O)NCc2ccc(-c3ccnc4[nH]nc(N[C@@H]5CCNC5)c34)cc2F)cc2c1CC(C)(C)C2 [Example 157, N-{[2-fluoro-4-(3-{[(3R)-pyrrolidin-3-yl]amino}-1H-pyrazolo[3,4-b]pyridin-4-yl)phenyl]methyl}-1,5,5-trimethyl-1H,4H,5H,6H-cyclopenta[b]pyrrole-2-carboxamide] | > 10000 | > 10000 | > 10000 | – | –
CC(C)(C)c1noc(C(=O)NCc2ccc(-c3ccnc4[nH]nc(N[C@H]5CCCNC5)c34)cc2F)n1 [Example 167, 3-tert-butyl-N-{[2-fluoro-4-(3-{[(3S)-piperidin-3-yl]amino}-1H-pyrazolo[3,4-b]pyridin-4-yl)phenyl]methyl}-1,2,4-oxadiazole-5-carboxamide] | > 10000 | > 10000 | 10.7 | >100 | –
CC(C)(C)c1n[nH]c(C(=O)NCc2ccc(-c3ccnc4[nH]nc(N[C@@H]5CCNC5)c34)cc2F)n1 [Example 78, 3-tert-butyl-N-{[2-fluoro-4-(3-{[(3R)-pyrrolidin-3-yl]amino}-1H-pyrazolo[3,4-b]pyridin-4-yl)phenyl]methyl}-1H-1,2,4-triazole-5-carboxamide] | > 10000 | > 10000 | > 10000 | – | –
CN1CC[C@H](Nc2n[nH]c3nccc(-c4ccc(CNC(=O)c5nc(C(C)(C)C)no5)c(F)c4)c23)C1 [Example 166, 3-tert-butyl-N-{[2-fluoro-4-(3-{[(3S)-1-methylpyrrolidin-3-yl]amino}-1H-pyrazolo[3,4-b]pyridin-4-yl)phenyl]methyl}-1,2,4-oxadiazole-5-carboxamide] | > 10000 | > 10000 | 3.12 | >100 | < 10

Other lines, results leading:

IC50 (panel of kinases) [nM] | IC50 (TEC) [nM] | IC50 (Btk; [1]) [nM] | TEC/Btk (TEC) | IC50 (Btk; method is one of A, B or C, not stated which, read-out: IC50 values against Btk) [nM] | Compound
863 | 177 | 0.546 | – | – | C[C@H]1CC[C@@H](Nc2n[nH]c3nccc(-c4ccc(CNC(=O)c5nc(C(C)(C)C)no5)c(F)c4)c23)CN1C(=O)N1CCOCC1 [Example 409, 3-tert-butyl-N-{[2-fluoro-4-(3-{[(3R,6S)-6-methyl-1-(morpholine-4-carbonyl)piperidin-3-yl]amino}-1H-pyrazolo[3,4-b]pyridin-4-yl)phenyl]methyl}-1,2,4-oxadiazole-5-carboxamide]
19 | 73.3 | 0.727 | – | – | C=CC(=O)N1CC[C@@H](Nc2n[nH]c3nccc(-c4ccc(CNC(=O)c5ccc6scnc6c5)c(F)c4)c23)C1 [Example 362, N-{[2-fluoro-4-(3-{[(3R)-1-(prop-2-enoyl)pyrrolidin-3-yl]amino}-1H-pyrazolo[3,4-b]pyridin-4-yl)phenyl]methyl}-1,3-benzothiazole-5-carboxamide]
5010 | 5560 | 4.73 | 1175 | – | CN1CCCN([C@@H]2CCN(c3n[nH]c4nccc(-c5ccc(CNC(=O)c6nc(C(C)(C)C)no6)c(F)c5)c34)C2)C1=O [Example 241, 3-tert-butyl-N-[(2-fluoro-4-{3-[(3R)-3-(3-methyl-2-oxo-1,3-diazinan-1-yl)pyrrolidin-1-yl]-1H-pyrazolo[3,4-b]pyridin-4-yl}phenyl)methyl]-1,2,4-oxadiazole-5-carboxamide]
141 | 741 | 64.1 | – | – | C=CC(=O)N1CC[C@@H](Nc2n[nH]c3nccc(-c4ccc(CNC(=O)c5ccc6ocnc6c5)c(F)c4)c23)C1 [Example 379, (R)-N-{[2-fluoro-4-(3-{[1-(prop-2-enoyl)pyrrolidin-3-yl]amino}-1H-pyrazolo[3,4-b]pyridin-4-yl)phenyl]methyl}-1,3-benzoxazole-5-carboxamide]

Reference: US20180194762A1 (Pharmacyclics LLC, priority 2017, published 2018)
